Patent US11702427B2 (priority 2018, dated 2023)

System: HBsAg
Test: HBsAg assay: inhibition of HBsAg in HepG2.2.15 cells (CLIA immunoassay of supernatant)
Format: cell-based, hepatitis B virus (HBV)
Details: read-out: sAg EC50; HepG2.2.15 cells; supernatant collected at day 6 after exposure; HBsAg chemiluminescence immunoassay
Protocol: Inhibition of HBsAg was determined in HepG2.2.15 cells. Cells were maintained in culture medium containing 10% fetal calf serum, […], Glutamine, penicillin/streptomycin. Cells were seeded in 96-well collagen-coated plate at a density of 30,000 cells/well. Serially diluted compounds were added to cells next day at the final DMSO concentration of 0.5%. Cells were incubated with compounds for 2-3 days, after which medium was removed. Fresh medium containing compounds was added to cells for additional 3-4 days. At day 6 after exposure of compounds, supernatant was collected, the HBsAg immunoassay (microplate-based chemiluminescence immunoassay kits, CLIA, Autobio Diagnosics Co., Zhengzhou, China, Catalog #CL0310-2) was used to determine the level of HBsAg according to manufactory instruction. Dose-response curves were generated and the EC50 value (effective concentrations that achieved 50% inhibitory effect) were determined using XLfit software. In addition, cells can be seeded at a density of 5,000 cells/well for determination of cell viability in the presence and absence of compounds by using CellTiter-Glo reagent (Promega). Tables 1-3 show EC50 values obtained by the HBsAg assay for selected compounds.

Structure (SMILES) | EC50 [nM]
COCCCOc1cc2c(cc1OC)-c1[nH]c(=O)c(C(=O)O)cc1C(C(C)C)C2 (single isomer, unassigned) [Example 2, 5-Isopropyl-9-methoxy-8-(3-methoxypropoxy)-2-oxo-1,2,5,6-tetrahydrobenzo[h]quinoline-3-carboxylic acid] | 11
COCCCOc1cc2c(cc1OC)-c1[nH]c(=O)c(C(=O)O)cc1C(C(C)C)C2 (single isomer, unassigned) [Example 3, 5-Isopropyl-9-methoxy-8-(3-methoxypropoxy)-2-oxo-1,2,5,6-tetrahydrobenzo[h]quinoline-3-carboxylic acid] | 2000
COCCCOc1cc2c(cc1OC)-c1[nH]c(=O)c(C(=O)O)cc1C(C)(C(C)C)C2 (single isomer, unassigned) [Example 7, 5-Isopropyl-9-methoxy-8-(3-methoxypropoxy)-5-methyl-2-oxo-1,6-dihydrobenzo[h]quinoline-3-carboxylic acid] | 22
COCCCOc1cc2c(cc1OC)-c1[nH]c(=O)c(C(=O)O)cc1C(C)(C(C)C)C2 (single isomer, unassigned) [Example 8, 5-Isopropyl-9-methoxy-8-(3-methoxypropoxy)-5-methyl-2-oxo-1,6-dihydrobenzo[h]quinoline-3-carboxylic acid] | 2500
COCCCOc1cc2c(cc1Cl)-c1[nH]c(=O)c(C(=O)O)cc1C(C)(C(C)C)C2 (single isomer, unassigned) [Example 10, 9-Chloro-5-isopropyl-8-(3-methoxypropoxy)-5-methyl-2-oxo-1,6-dihydrobenzo[h]quinoline-3-carboxylic acid] | 25
COCCCOc1cc2c(cc1Cl)-c1[nH]c(=O)c(C(=O)O)cc1C(C)(C(C)C)C2 (single isomer, unassigned) [Example 11, 9-Chloro-5-isopropyl-8-(3-methoxypropoxy)-5-methyl-2-oxo-1,6-dihydrobenzo[h]quinoline-3-carboxylic acid] | 250
COCCCOc1cc2c(cc1Cl)-c1[nH]c(=O)c(C(=O)O)c(O)c1C(C)(C(C)C)C2 (single isomer, unassigned) [Example 15, 9-Chloro-4-hydroxy-5-isopropyl-8-(3-methoxypropoxy)-5-methyl-2-oxo-1,2,5,6-tetrahydrobenzo[h]quinoline-3-carboxylic acid] | 18
COCCCOc1cc2c(cc1Cl)-c1[nH]c(=O)c(C(=O)O)c(O)c1C(C)(C(C)C)C2 (single isomer, unassigned) [Example 16, 9-Chloro-4-hydroxy-5-isopropyl-8-(3-methoxypropoxy)-5-methyl-2-oxo-1,2,5,6-tetrahydrobenzo[h]quinoline-3-carboxylic acid] | 2000
COCCCOc1cc2c(nc1Cl)-c1[nH]c(=O)c(C(=O)O)c(O)c1C(C(C)C)C2 (single isomer, unassigned) [Example 27, 9-Chloro-4-hydroxy-5-isopropyl-8-(3-methoxypropoxy)-2-oxo-1,2,5,6-tetrahydro-1,10-phenanthroline-3-carboxylic acid] | 2
COCCCOc1cc2c(nc1Cl)-c1[nH]c(=O)c(C(=O)O)c(O)c1C(C(C)C)C2 (single isomer, unassigned) [Example 28, 9-Chloro-4-hydroxy-5-isopropyl-8-(3-methoxypropoxy)-2-oxo-1,2,5,6-tetrahydro-1,10-phenanthroline-3-carboxylic acid] | 43
COCCCOc1cc2c(cc1OC)-c1[nH]c(=O)c(C(=O)O)c(O)c1C(C)(C(C)C)C2 (single isomer, unassigned) [Example 31, 4-Hydroxy-5-isopropyl-9-methoxy-8-(3-methoxypropoxy)-5-methyl-2-oxo-1,2,5,6-tetrahydrobenzo[h]quinoline-3-carboxylic acid] | 27
COCCCOc1cc2c(cc1OC)-c1[nH]c(=O)c(C(=O)O)c(O)c1C(C)(C(C)C)C2 (single isomer, unassigned) [Example 32, 4-Hydroxy-5-isopropyl-9-methoxy-8-(3-methoxypropoxy)-5-methyl-2-oxo-1,2,5,6-tetrahydrobenzo[h]quinoline-3-carboxylic acid] | 10000
COCCCOc1cc2c(nc1OC)-c1[nH]c(=O)c(C(=O)O)c(O)c1C(C(C)C)C2 (single isomer, unassigned) [Example 34, 4-Hydroxy-5-isopropyl-9-methoxy-8-(3-methoxypropoxy)-2-oxo-1,2,5,6-tetrahydro-1,10-phenanthroline-3-carboxylic acid] | 3
COCCCOc1cc2c(nc1OC)-c1[nH]c(=O)c(C(=O)O)c(O)c1C(C(C)C)C2 (single isomer, unassigned) [Example 35, 4-Hydroxy-5-isopropyl-9-methoxy-8-(3-methoxypropoxy)-2-oxo-1,2,5,6-tetrahydro-1,10-phenanthroline-3-carboxylic acid] | 150
COCCCOc1cc2c(nc1OC)-c1[nH]c(=O)c(C(=O)O)c(O)c1C(C(C)(C)C)C2 (single isomer, unassigned) [Example 37, 5-(tert-Butyl)-4-hydroxy-9-methoxy-8-(3-methoxypropoxy)-2-oxo-1,2,5,6-tetrahydro-1,10-phenanthroline-3-carboxylic acid] | 1
COCCCOc1cc2c(nc1OC)-c1[nH]c(=O)c(C(=O)O)c(O)c1C(C(C)(C)C)C2 (single isomer, unassigned) [Example 38, 5-(tert-Butyl)-4-hydroxy-9-methoxy-8-(3-methoxypropoxy)-2-oxo-1,2,5,6-tetrahydro-1,10-phenanthroline-3-carboxylic acid] | 35
CCOc1nc2c(cc1OCCCOC)CC(C(C)C)c1c-2[nH]c(=O)c(C(=O)O)c1O (single isomer, unassigned) [Example 40, 9-Ethoxy-4-hydroxy-5-isopropyl-8-(3-methoxypropoxy)-2-oxo-1,2,5,6-tetrahydro-1,10-phenanthroline-3-carboxylic acid] | 87
CCOc1nc2c(cc1OCCCOC)CC(C(C)C)c1c-2[nH]c(=O)c(C(=O)O)c1O (single isomer, unassigned) [Example 41, 9-Ethoxy-4-hydroxy-5-isopropyl-8-(3-methoxypropoxy)-2-oxo-1,2,5,6-tetrahydro-1,10-phenanthroline-3-carboxylic acid] | 1
COCCCOc1cc2c(nc1OC)-c1[nH]c(=O)c(C(=O)O)cc1C(C(C)C)C2 (single isomer, unassigned) [Example 44, 5-Isopropyl-9-methoxy-8-(3-methoxypropoxy)-2-oxo-1,2,5,6-tetrahydro-1,10-phenanthroline-3-carboxylic acid] | 2
COCCCOc1cc2c(nc1OC)-c1[nH]c(=O)c(C(=O)O)cc1C(C(C)C)C2 (single isomer, unassigned) [Example 45, 5-Isopropyl-9-methoxy-8-(3-methoxypropoxy)-2-oxo-1,2,5,6-tetrahydro-1,10-phenanthroline-3-carboxylic acid] | 16
COCCCOc1cc2c(nc1OC)-c1[nH]c(=O)c(C(=O)O)cc1C(C(C)(C)C)C2 (single isomer, unassigned) [Example 47, 5-(tert-Butyl)-9-methoxy-8-(3-methoxypropoxy)-2-oxo-1,2,5,6-tetrahydro-1,10-phenanthroline-3-carboxylic acid] | 1
COCCCOc1cc2c(nc1OC)-c1[nH]c(=O)c(C(=O)O)cc1C(C(C)(C)C)C2 (single isomer, unassigned) [Example 48, 5-(tert-Butyl)-9-methoxy-8-(3-methoxypropoxy)-2-oxo-1,2,5,6-tetrahydro-1,10-phenanthroline-3-carboxylic acid] | 42
COCCCOc1cc2c(nc1OC)-c1[nH]c(=O)c(C(N)=O)c(O)c1C(C(C)(C)C)C2 (single isomer, unassigned) [Example 60, 5-(tert-Butyl)-4-hydroxy-9-methoxy-8-(3-methoxypropoxy)-2-oxo-1,2,5,6-tetrahydro-1,10-phenanthroline-3-carboxamide] | 2
COCCCOc1cc2c(nc1OC)-c1[nH]c(=O)c(C(N)=O)c(O)c1C(C(C)(C)C)C2 (single isomer, unassigned) [Example 61, 5-(tert-Butyl)-4-hydroxy-9-methoxy-8-(3-methoxypropoxy)-2-oxo-1,2,5,6-tetrahydro-1,10-phenanthroline-3-carboxamide] | 300
COCCCOc1cc2c(nc1Cl)-c1[nH]c(=O)c(C(=O)O)c(O)c1C(C(C)C)CO2 (single isomer, unassigned) [Example 75, 2-Chloro-8-hydroxy-7-isopropyl-3-(3-methoxypropoxy)-10-oxo-6,7,10,11-tetrahydrooxepino[3,2-b:4,5-b′]dipyridine-9-carboxylic acid] | 22
COCCCOc1cc2c(nc1Cl)-c1[nH]c(=O)c(C(=O)O)c(O)c1C(C(C)C)CO2 (single isomer, unassigned) [Example 76, 2-Chloro-8-hydroxy-7-isopropyl-3-(3-methoxypropoxy)-10-oxo-6,7,10,11-tetrahydrooxepino[3,2-b:4,5-b′]dipyridine-9-carboxylic acid] | 560
COCCCOc1cc2c(nc1Cl)-c1[nH]c(=O)c(C(=O)O)c(O)c1C(C(C)(C)C)CO2 (single isomer, unassigned) [Example 77, 7-(tert-Butyl)-2-chloro-8-hydroxy-3-(3-methoxypropoxy)-10-oxo-6,7,10,11-tetrahydrooxepino[3,2-b:4,5-b′]dipyridine-9-carboxylic acid] | 6
